Reference: US20080038251A1, “MN/CA IX and MAPK inhibition” (priority 2006, published 2008)
Entries after “also recorded” stand apart in the source; their conditions may differ.

Key:
[1] = system: tumor xenograft models; settings: cited from earlier work
[2] = system: MEK; settings: biochemical assays; cited from earlier work
[3] = compared with CI-1040; cited from earlier work
[4] = compared with CI-1040; cited from earlier work; remark: listed apart in the source
[5] = compared with CI-1040; cited from earlier work; remark: listed apart in the source
[6] = system: PR1-HRE CA9 promoter; experiment: PR1-HRE-luc CA9 promoter luciferase-renilla reporter assay in HEK293 cells; assay type: cell-based, human
Description: The inventors used PR1-HRE promoter region of CA9 ([…]) that contains HRE element and SP1 binding site, and assessed its transcriptional activity in luciferase-renilla reporter system. First, the PR1-HRE-luc plasmid was co-transfected together with renilla internal standard to HEK293 cells plated in high density and treated by the U0126 inhibitor of ERK (MAP kinases) for 20 h (FIG. 8). The promoter activity was analyzed in the transfected cells incubated in normoxic conditions or in the presence of DFO that can induce a chemical hypoxia. The promoter activity was determined as a ratio between the luciferase-related luminescence and renilla-related luminescence.
(§1) The PR1-HRE-luc promoter construct was generated by an insertion of a −50/+37 CA9 genomic region amplified by PCR upstream of the firefly luciferase gene in pGL3-Basic luciferase reporter vector (Promega). pRL-TK renilla vector (Promega) served for the control of the transfection efficiency.

[7] = system: PR1-HRE CA9 promoter; experiment: PR1-HRE-luc CA9 promoter luciferase-renilla reporter assay in HeLa cells; assay type: cell-based, human
From the text: as §1
Therefore, the inventors have cloned a −50/+37 CA9 genomic region, containing that module in its natural context relative to the transcription start site, upstream of the reporter luciferase gene. The PR1-HRE-luc promoter construct was then co-transfected with the renilla-coding control plasmid to HeLa cells that express CA IX protein in response to hypoxia and high cell density.

[8] = system: CA IX protein; experiment: Immunoblotting of endogenous CA IX protein expression in HeLa cells; assay type: cell-based, human; settings: data not shown; for CA IX protein level / hypoxic induction of CA IX protein: Example 9, hypoxia
Description: HeLa cells were plated in dense (80,000 cells/cm^2) and sparse (10,000 cells/cm^2) cultures and incubated for 24 h. […] Parallel control dishes were pre-treated and maintained in normoxia for the same time period.
For the detection of CA IX, the cells were extracted with cold RIPA buffer for 15 min at 4° C. The extracts were then centrifuged (15 min at 13,000 rpm) and total protein concentrations were determined by BCA assay (Pierce, Rockford, Ill.). Samples of 30 μg total proteins were separated by the electrophoresis using 10% SDS-PAGE and blotted onto the PVDF membrane. Before immunodetection, the membrane was treated by the blocking buffer containing 5% non-fat milk in PBS with 0.2% Nonidet P-40 for 1 h and incubated for 1 h with M75 MAb diluted 1:2 in the blocking buffer. Then the membrane was washed, incubated for 1 h with the anti-mouse secondary antibody, washed again and developed with the ECL detection system. Intensity of CA IX-specific bands was analyzed by the Scion Image Beta 4.02 software (Scion Corporation, Frederick, Md.), and relative CA IX expression was expressed as percentages.

[9] = system: PR1-HRE CA9 promoter
Description: To dissect a direct contribution of HIF-1 to transcriptional activation of CA9 promoter, the inventors performed an additional experiment using Ka1.13 cell line that is defective for HIF-1α. The Ka1.13 cells were transfected either with PR1-HRE-luc reporter plasmid+renilla standard+control pcDNA3.1 plasmid or with the PR1-HRE-luc reporter plasmid+renilla standard+HIF-1α cDNA.
Cultures were pre-incubated with the inhibitors 1 h before the induction of hypoxia or addition of DFO.
The cells were plated into 30 mm Petri dishes to reach approximately 60% monolayer density on the next day. Transfection was performed with the 2 μg of PR1-HRE-luc and 100 ng of pRL-TK plasmids DNAs using a GenePorterII reagent (Gene Therapy Systems, San Diego, Calif.) according to the manufacturer's recommendation. One day later, the transfected cells were trypsinized and plated in triplicates into 24-well plates at different densities so that the dense culture contained eight times more cells than the sparse one. The cells were allowed to attach for 20 h, then they were pre-treated with inhibitors for 1 h and transferred to hypoxia (or treated with DFO) for additional 24 h. Reporter gene expression was assessed 48 h after the transfection using the Dual-Luciferase Reporter Assay System (Promega) and the luciferase activity was normalized against the renilla expression.
Therefore, the Ka13 cells were plated at intermediate density, transfected with the PR1-HRE-luc promoter construct together with the renilla control plasmid and pcDNA3.1 plasmid, pre-treated with the U0126 MAPK pathway inhibitor and exposed to a DFO-induced hypoxia. Parallel dishes were maintained in absence of DFO.

[10] = Phase I and II clinical trials; cited from earlier work

In the case of `Cn1cnc2c(F)c(Nc3ccc(Br)cc3Cl)c(C(=O)NOCCO)cc21` [ARRY-142886], the anti-tumor activity [1] is given as “potent anti-tumor activity” and the “selectivity for MEK” value [2] is given as “high selectivity for MEK”.
In the case of `O=C(NOC[C@H](O)CO)c1ccc(F)c(F)c1Nc1ccc(I)cc1F` [PD-0325901], the anti-tumor activity [1] is given as “potent anti-tumor activity”, the solubility [3] is given as “more soluble” and the metabolic stability [4] is given as “improved metabolic stability”. For the same compound, the bioavailability [5] was “improved”.
For `N#CC(=C(/N)Sc1ccccc1N)/C(C#N)=C(\N)Sc1ccccc1N` [U0126], the “PR1-HRE CA9 promoter transcriptional activity (luciferase/renilla ratio)” value ([6]; Example 1, HEK293 plated in high density, inhibitor 20 h, normoxia or DFO-induced hypoxia) was “down-regulation of the PR1-HRE CA9 promoter activity; also recorded: diminished PR1-HRE transcriptional activity both in normoxia and in hypoxia”, the CA9 promoter activity ([6]; Example 5, HEK293 dense culture exposed to hypoxia, data not shown) was “considerably inhibited; also recorded: remarkable reduction” and the CA9 promoter activity ([7]; Example 5, HeLa sparse and dense, normoxia or DFO hypoxia, 20 μM inhibitor) was “about fourfold decrease; also recorded: remarkable reduction”. The “CA9 promoter activity, fraction of control value” ([7]; Example 8, dense hypoxic (1% O2) HeLa, 20 μM U0126, 10 μM LY294002) was “about one third”, the “effect on CA9 promoter activity” value ([7]; Example 8, normoxic and sparse HeLa cells, compared with dense hypoxic cells) was “less pronounced” and the “CA IX protein expression (Western blotting)” value ([8]; Example 2, sparse and dense HeLa, normoxia (21% O2) and hypoxia (2% O2)) was “evident also at the level of CA IX protein”. The “endogenous CA IX protein levels” value ([8]; Example 5, HeLa, hypoxia and/or high density) was “corresponded with the promoter activities”, the “CA IX protein level / hypoxic induction of CA IX protein” value ([8]; HeLa) was “reduced the CA IX protein level” and the “PR1-HRE CA9 promoter transcriptional activity” value ([9]; Example 3, Ka1.13 cells with control pcDNA3.1 or HIF-1α cDNA) was “reduced the CA9 promoter activity in both the presence and absence of HIF-1α; also recorded: diminished transcription from PR1-HRE promoter both in the presence and in the absence of HIF-1α”. For the same compound, the “CA9 promoter activity, fraction of HIF-1α induced value” ([9]; Example 6, Ka13 co-transfected with wild-type HIF-1α cDNA) was “approximately one third” and the “CA9 promoter activity, remaining fraction” value ([9]; Example 6, Ka13 with empty pcDNA3.1 (no HIF-1α), with and without DFO) was “less than a half”.
In the case of “Rencarex: an MN-specific drug tested in Phase I and II clinical trials”, the “tolerability / drug-related side effects” value [10] is given as “well-tolerated, with no serious drug-related side effects”.
In the case of mithramycin A [MMA], the “CA IX protein level / hypoxic induction of CA IX protein” value ([8]; HeLa) is reported as “reduced the CA IX protein level”.
